The subject of assay [1] is tobacco bacterial wilt pathogen (Rs). It counts as cell-based, Ralstonia solanacearum.
Assay [2] relates to rice bacterial wilt pathogen (Xoo). The class given is cell-based, Xanthomonas oryzae pv. oryzae.
Assay [3] relates to citrus canker pathogen (Xac). Description: Turbidimetric anti-plant bacterial activity test, citrus canker pathogen. The class given is cell-based, Xanthomonas axonopodis pv. citri.

The results in this text go back to US12063930B2, “Sulfonamide-containing 4-(N-methyl) aminopiperidine myricetin derivatives, preparation method and application” (Guizhou University, priority 2019, dated 2024).

Molecules are shown by their SMILES. Like-named read-outs stand apart in the source and are kept apart here.

`COc1cc(OC)c2c(=O)c(OCCCCN(C)C3CCN(S(=O)(=O)c4ccccc4)CC3)c(-c3cc(OC)c(OC)c(OC)c3)oc2c1` [Compound I17]: the “Inhibition Rate” value is 45.66 ± 3.26% in assay [1] (50 μg/mL); 38.06 ± 1.91% in assay [1] (100 μg/mL); 89.16 ± 1.26% in assay [2] (50 μg/mL); 98.29 ± 2.42% in assay [2] (100 μg/mL); 99.00 ± 0.40% in assay [3] (50 μg/mL); 99.52 ± 0.87% in assay [3] (100 μg/mL).

As to `COc1cc(OC)c2c(=O)c(OCCCN(C)C3CCN(S(=O)(=O)c4cccs4)CC3)c(-c3cc(OC)c(OC)c(OC)c3)oc2c1` [Compound I4], the “Inhibition Rate” value stood at 46.44 ± 8.48% in assay [1] (50 μg/mL); 58.19 ± 8.11% in assay [1] (100 μg/mL); 21.34 ± 3.45% in assay [2] (50 μg/mL); 48.16 ± 4.24% in assay [2] (100 μg/mL); 76.83 ± 2.59% in assay [3] (50 μg/mL); 81.47 ± 3.58% in assay [3] (100 μg/mL).

For the molecule `COc1cc(OC)c2c(=O)c(OCCCN(C)C3CCN(S(=O)(=O)c4ccc5cccnc5c4)CC3)c(-c3cc(OC)c(OC)c(OC)c3)oc2c1` [Compound I9], the “Inhibition Rate” value came out at 12.10 ± 2.57% in assay [1] (50 μg/mL); 28.82 ± 3.37% in assay [1] (100 μg/mL); 37.31 ± 5.41% in assay [2] (50 μg/mL); 40.25 ± 1.39% in assay [2] (100 μg/mL); 32.80 ± 2.29% in assay [3] (50 μg/mL); 42.50 ± 1.87% in assay [3] (100 μg/mL).

For `COc1cc(OC)c2c(=O)c(OCCCN(C)C3CCN(S(=O)(=O)c4ccc(C)cc4)CC3)c(-c3cc(OC)c(OC)c(OC)c3)oc2c1` [Compound I1], the “Inhibition Rate” value in assay [1] (50 μg/mL) is 47.86 ± 5.55%; in assay [1] (100 μg/mL), 58.01 ± 6.08%; in assay [2] (50 μg/mL), 75.88 ± 1.80%; in assay [2] (100 μg/mL) it was 81.34 ± 0.57%; in assay [3] (50 μg/mL), 93.55 ± 0.85%; in assay [3] (100 μg/mL), 99.20 ± 4.48%.

As to `COc1cc(OC)c2c(=O)c(OCCCN(C)C3CCN(S(=O)(=O)c4ccc([N+](=O)[O-])cc4)CC3)c(-c3cc(OC)c(OC)c(OC)c3)oc2c1` [Compound I6], the “Inhibition Rate” value in assay [1] (50 μg/mL) was 26.01 ± 6.89%; in assay [1] (100 μg/mL) it was 59.09 ± 4.18%; in assay [2] (50 μg/mL) it was 52.08 ± 6.32%; in assay [2] (100 μg/mL), 60.99 ± 5.49%; in assay [3] (50 μg/mL), 96.13 ± 1.63%; in assay [3] (100 μg/mL) it was 99.01 ± 0.64%.

As to `COc1cc(OC)c2c(=O)c(OCCCN(C)C3CCN(S(=O)(=O)c4ccccn4)CC3)c(-c3cc(OC)c(OC)c(OC)c3)oc2c1` [Compound I8], the “Inhibition Rate” value was 47.65 ± 0.35% in assay [1] (50 μg/mL); 48.99 ± 2.35% in assay [1] (100 μg/mL); 52.14 ± 3.12% in assay [2] (50 μg/mL); 59.94 ± 3.35% in assay [2] (100 μg/mL); 85.13 ± 2.35% in assay [3] (50 μg/mL); 88.03 ± 1.19% in assay [3] (100 μg/mL).

Turning to `COc1cc(OC)c2c(=O)c(OCCCCN(C)C3CCN(S(=O)(=O)c4ccccn4)CC3)c(-c3cc(OC)c(OC)c(OC)c3)oc2c1` [Compound I18], the “Inhibition Rate” value in assay [1] (50 μg/mL) was determined as 46.22 ± 3.27%; in assay [1] (100 μg/mL), 30.11 ± 1.65%; in assay [2] (50 μg/mL), 70.98 ± 3.04%; in assay [2] (100 μg/mL) it was 78.12 ± 4.25%; in assay [3] (50 μg/mL) it was 88.69 ± 0.71%; in assay [3] (100 μg/mL), 93.05 ± 0.55%.
